Test results from US20160095810A1, “Cosmetic and/or dermatological compositions containing polyphenols stabilized by perfluoropolyether phosphates and use of perfluoropolyether phosphates as stabilizing agents for polyphenols” (BIO.LO.GA, priority 2003, published 2016).

Key:
[1] = stability of ascorbic acid in the cream, UV determination at 266.5 nm; assay type: physicochemical; details: cream of Example 3, 4 months at room temperature then 45° C. for one month
Experimental: The stability of the ascorbic acid contained in the cream was determined as follows.
A series of samples of the cream contained in the said small plastic jars was kept for a period of 4 months at room temperature and then in an oven at 45° C. for one month, after which the ascorbic acid content of the cream was checked.
In order to determine the ascorbic acid content, 100 mg of cream were diluted in 100 ml of 0.1 M phosphate buffer at pH 6, and the thus obtained suspension was magnetically stirred in the dark for 20 minutes. Thereafter, 30 ml of the suspension were transferred to a 50 ml centrifuge tube and 15 ml of chloroform were added. The tube was shaken for 10 minutes and then centrifuged at 6000 rpm for 5 minutes. The upper aqueous phase was directly analyzed with a UV Vis Jasco V-350 spectrophotometer, using phosphate buffer as a blank and the ascorbic acid peak at 266.5 nm was measured.
The ascorbic acid concentration was determined by means of a calibration curve made from standard solutions containing 1.0, 1.5 and 2.0 mg ascorbic acid/100 ml phosphate buffer.

[2] = stability test of the cream, twelve weeks at 45° C., viscosity check and HPLC content; assay type: physicochemical; details: cream of Example 1, twelve weeks at 45° C.; nominal tocopherol 5, Greenselect 0.5, Leucoselect 0.5
Experimental: The cream was packed in plastics containers of 50 ml and subjected to a test to confirm the stability. A series of samples of the cream contained in the said small plastic jars was kept in an oven at 45° C. for twelve weeks, after which the viscosity of the cream was checked and found unaltered with respect to the starting value.
In addition there was the verification of the amount of polyphenols and vitamin E present in the cream at the end of the twelve weeks at 45° C., by means of an HPLC method, using a Macherey-Nagel column, Nucleosil 100-5 C18, packed with 5 μm particles (150×4.6 mm internal diameter), and a pre-column system Nucleosil 100-5 C18, CC 8/4.
The determination of free tocopherol, carried out using methanol as the eluent in isocratic conditions, with a flow rate of 1 ml/min and λ 290 nm, gave a value of 5.2%.
The determination of the polyphenol concentration in the cream was carried out using a mobile phase in binary gradient as eluent, composed of: phase A=0.3% formic acid in water and phase B=methanol; flow rate 1 ml/min; λ=278 nm. In such conditions the Greenselect® has a retention time Rt=22.84 min and the Leucoselect® Rt=6.53 min.

Row | ascorbic acid lost by the end of the storage period [1] | ascorbic acid concentration from the calibration curve ([1]; nominal 2 mg/100 ml) | amount present in the cream at the end of storage (HPLC) [2] | SMILES
1 | 7.8% | 1.844 mg/100 ml |  | O=C1O[C@H]([C@@H](O)CO)C(O)=C1O [ascorbic acid, Ascorbic acid]
2 |  |  | 5.2% | Cc1c(C)c2c(c(C)c1O)CC[C@@](C)(CCC[C@H](C)CCC[C@H](C)CCCC(C)C)O2 [free tocopherol, Tocopherol]
